ChEMBL document CHEMBL2203234, “Optimisation of imidazole compounds as selective TAAR1 agonists: discovery of RO5073012” (Bioorg Med Chem Lett, 2012)

Experiments:
[1] = biological target: Vasoactive intestinal polypeptide receptor 1 (Homo sapiens) (UniProt P32241); assay: Inhibition of human VIP1 receptor at 10 uM by CEREP assay
[2] = Inhibition of tyrosine hydroxylase at 10 uM by CEREP assay
[3] = biological target: Growth hormone secretagogue receptor type 1 (Homo sapiens) (UniProt Q92847); assay: Inhibition of human Ghrelin receptor at 10 uM by CEREP assay
Growth hormone secretagogue receptor type 1 (Homo sapiens), sequence (Q92847 whole entry): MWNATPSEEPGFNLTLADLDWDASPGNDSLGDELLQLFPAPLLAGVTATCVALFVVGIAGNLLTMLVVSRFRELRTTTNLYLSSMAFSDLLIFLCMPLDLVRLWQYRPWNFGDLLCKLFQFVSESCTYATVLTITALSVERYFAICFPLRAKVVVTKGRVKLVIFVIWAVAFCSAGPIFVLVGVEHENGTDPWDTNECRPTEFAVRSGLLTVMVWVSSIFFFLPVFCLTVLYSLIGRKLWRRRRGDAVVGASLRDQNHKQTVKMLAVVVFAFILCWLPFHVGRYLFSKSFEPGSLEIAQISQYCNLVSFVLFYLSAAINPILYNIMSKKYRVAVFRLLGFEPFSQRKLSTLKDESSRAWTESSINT

[4] = biological target: Beta-2 adrenergic receptor (Homo sapiens) (UniProt P07550); assay: Inhibition of human beta 2 adrenergic receptor at 10 uM by CEREP assay
Beta-2 adrenergic receptor (Homo sapiens), sequence (P07550 whole entry, looked up): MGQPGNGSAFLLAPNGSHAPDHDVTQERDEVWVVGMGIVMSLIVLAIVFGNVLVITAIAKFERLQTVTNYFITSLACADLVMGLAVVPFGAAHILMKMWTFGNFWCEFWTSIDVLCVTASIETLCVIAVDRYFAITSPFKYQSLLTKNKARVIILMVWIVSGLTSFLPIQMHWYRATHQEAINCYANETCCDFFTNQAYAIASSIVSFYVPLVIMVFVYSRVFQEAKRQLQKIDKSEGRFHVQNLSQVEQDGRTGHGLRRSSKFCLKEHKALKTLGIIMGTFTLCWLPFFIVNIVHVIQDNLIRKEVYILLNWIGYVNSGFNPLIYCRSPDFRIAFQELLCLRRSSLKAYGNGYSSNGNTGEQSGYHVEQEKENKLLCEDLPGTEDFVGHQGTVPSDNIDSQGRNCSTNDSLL

[5] = biological target: D(1A) dopamine receptor (Homo sapiens) (UniProt P21728); assay: Inhibition of human D1 receptor at 10 uM by CEREP assay
[6] = Inhibition of L-type Ca2+ channel verapamil site at 10 uM by CEREP assay
[7] = biological target: Motilin receptor (Homo sapiens) (UniProt O43193); assay: Inhibition of human Motilin receptor at 10 uM by CEREP assay
[8] = biological target: Melanocyte-stimulating hormone receptor (Homo sapiens) (UniProt Q01726); assay: Inhibition of MC1 receptor at 10 uM by CEREP assay
[9] = biological target: 5-hydroxytryptamine receptor 1B (Homo sapiens) (UniProt P28222); assay: Inhibition of 5-HT1B receptor at 10 uM by CEREP assay
5-hydroxytryptamine receptor 1B (Homo sapiens), sequence (P28222 whole entry): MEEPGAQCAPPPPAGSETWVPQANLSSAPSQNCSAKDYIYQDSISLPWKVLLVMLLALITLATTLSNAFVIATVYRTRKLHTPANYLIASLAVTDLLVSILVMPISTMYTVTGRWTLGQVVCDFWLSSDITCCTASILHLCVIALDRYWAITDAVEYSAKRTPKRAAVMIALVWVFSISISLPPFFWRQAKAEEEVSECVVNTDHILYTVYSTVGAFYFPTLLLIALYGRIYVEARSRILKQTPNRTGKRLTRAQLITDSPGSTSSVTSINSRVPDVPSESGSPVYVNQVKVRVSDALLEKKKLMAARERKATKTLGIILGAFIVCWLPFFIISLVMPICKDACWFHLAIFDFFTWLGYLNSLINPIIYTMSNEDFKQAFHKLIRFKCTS

[10] = biological target: 5-hydroxytryptamine receptor 1D (Homo sapiens) (UniProt P28221); assay: Inhibition of 5-HT1D receptor at 10 uM by CEREP assay
[11] = biological target: Cysteinyl leukotriene receptor 1 (Homo sapiens) (UniProt Q9Y271); assay: Inhibition of human LTD4 receptor at 10 uM by CEREP assay
Homo sapiens [12] = organism: Homo sapiens; assay: Inhibition of human I1 receptor at 10 uM by CEREP assay
[13] = biological target: 5-hydroxytryptamine receptor 5A (Homo sapiens) (UniProt P47898); assay: Inhibition of human 5-HT5A receptor at 10 uM by CEREP assay
[14] = Oral bioavailability in mouse at 7.1 mg/kg; format: ADME, organism-based; details: in vivo
[15] = biological target: Acetylcholinesterase (Homo sapiens) (UniProt P22303); assay: Inhibition of human Acetylcholinesterase at 10 uM by CEREP assay
[16] = biological target: Cannabinoid receptor 1 (Homo sapiens) (UniProt P21554); assay: Inhibition of human CB1 receptor at 10 uM by CEREP assay
Cannabinoid receptor 1 (Homo sapiens), sequence (P21554 whole entry): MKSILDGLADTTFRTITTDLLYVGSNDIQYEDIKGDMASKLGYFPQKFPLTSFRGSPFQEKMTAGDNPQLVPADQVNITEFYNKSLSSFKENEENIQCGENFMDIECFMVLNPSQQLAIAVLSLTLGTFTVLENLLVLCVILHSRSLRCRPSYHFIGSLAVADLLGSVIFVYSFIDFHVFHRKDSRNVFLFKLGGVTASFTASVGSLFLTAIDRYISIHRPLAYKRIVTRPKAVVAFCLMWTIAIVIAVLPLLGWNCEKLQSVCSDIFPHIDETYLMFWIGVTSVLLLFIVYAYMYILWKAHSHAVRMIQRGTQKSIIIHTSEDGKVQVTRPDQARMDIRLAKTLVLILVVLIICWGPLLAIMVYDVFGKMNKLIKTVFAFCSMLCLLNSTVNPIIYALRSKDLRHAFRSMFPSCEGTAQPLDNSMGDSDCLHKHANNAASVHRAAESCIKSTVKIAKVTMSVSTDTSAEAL

[17] = biological target: Adenosine receptor A2a (Homo sapiens) (UniProt P29274); assay: Inhibition of human A2A receptor at 10 uM by CEREP assay
[18] = biological target: cGMP-specific 3',5'-cyclic phosphodiesterase (Canis lupus familiaris) (UniProt O77746); assay: Inhibition of human PDE5 at 10 uM by CEREP assay
CHL = assay: Selectivity ratio of Ki for human adrenergic alpha2A receptor expressed in CHL cells to Ki for human TAAR1 receptor; format: cell-based
[19] = Inhibition of ML1 receptor at 10 uM by CEREP assay
[20] = biological target: Pituitary adenylate cyclase-activating polypeptide type I receptor (Homo sapiens) (UniProt P41586); assay: Inhibition of human PAC1 receptor at 10 uM by CEREP assay
[21] = biological target: Adenosine receptor A1 (Homo sapiens) (UniProt P30542); assay: Inhibition of human A1 receptor at 10 uM by CEREP assay
Adenosine receptor A1 (Homo sapiens), sequence (P30542 whole entry): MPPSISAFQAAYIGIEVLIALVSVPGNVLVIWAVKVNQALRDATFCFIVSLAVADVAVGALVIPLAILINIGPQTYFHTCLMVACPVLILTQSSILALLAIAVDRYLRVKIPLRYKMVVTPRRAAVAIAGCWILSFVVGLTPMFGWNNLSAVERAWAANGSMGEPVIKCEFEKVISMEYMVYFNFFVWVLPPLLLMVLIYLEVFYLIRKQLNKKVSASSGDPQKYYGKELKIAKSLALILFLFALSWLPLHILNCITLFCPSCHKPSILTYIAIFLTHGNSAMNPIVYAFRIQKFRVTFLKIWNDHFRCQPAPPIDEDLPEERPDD

[22] = biological target: Histamine H2 receptor (Homo sapiens) (UniProt P25021); assay: Inhibition of human H2 receptor at 10 uM by CEREP assay
[23] = biological target: Platelet-activating factor receptor (Homo sapiens) (UniProt P25105); assay: Inhibition of human PAF receptor at 10 uM by CEREP assay
[24] = Inhibition of sst receptor at 10 uM by CEREP assay
Homo sapiens [25] = organism: Homo sapiens; assay: Inhibition of human AMPA receptor at 10 uM by CEREP assay
[26] = biological target: Muscarinic acetylcholine receptor M1 (Homo sapiens) (UniProt P11229); assay: Inhibition of human M1 receptor at 10 uM by CEREP assay
[27] = biological target: Progesterone receptor (Homo sapiens) (UniProt P06401); assay: Inhibition of human progesterone receptor at 10 uM by CEREP assay
[28] = Cmax in mouse at 7.1 mg/kg, po; format: ADME, organism-based; parameters: dose 7.1 mg/kg, route oral; details: in vivo
[29] = Inhibition of alpha 1 adrenergic receptor at 10 uM by CEREP assay
[30] = biological target: MAO-B (amine oxidase [flavin-containing] B) (Homo sapiens, UniProt P27338); assay: Inhibition of human MAO-B at 10 uM by CEREP assay
MAO-B (amine oxidase [flavin-containing] B), sequence (P27338 whole entry): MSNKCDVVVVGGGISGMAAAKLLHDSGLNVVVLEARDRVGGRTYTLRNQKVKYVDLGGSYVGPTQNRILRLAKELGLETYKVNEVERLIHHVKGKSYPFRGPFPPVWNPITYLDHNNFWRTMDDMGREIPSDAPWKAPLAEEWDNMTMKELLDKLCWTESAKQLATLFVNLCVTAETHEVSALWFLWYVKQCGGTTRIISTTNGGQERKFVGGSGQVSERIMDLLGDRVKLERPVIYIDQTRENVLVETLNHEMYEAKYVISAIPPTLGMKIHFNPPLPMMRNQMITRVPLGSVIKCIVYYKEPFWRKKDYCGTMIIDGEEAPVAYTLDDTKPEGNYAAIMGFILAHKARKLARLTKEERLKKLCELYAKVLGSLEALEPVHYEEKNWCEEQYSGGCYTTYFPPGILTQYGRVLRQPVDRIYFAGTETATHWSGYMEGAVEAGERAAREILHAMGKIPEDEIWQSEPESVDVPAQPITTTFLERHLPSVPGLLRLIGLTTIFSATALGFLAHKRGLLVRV

[31] = biological target: Cholecystokinin receptor type A (Homo sapiens) (UniProt P32238); assay: Inhibition of human CCKA receptor at 10 uM by CEREP assay
[32] = biological target: Sodium-dependent serotonin transporter (Homo sapiens) (UniProt P31645); assay: Inhibition of human 5-HT transporter at 10 uM by CEREP assay
Sodium-dependent serotonin transporter (Homo sapiens), sequence (P31645 whole entry, looked up): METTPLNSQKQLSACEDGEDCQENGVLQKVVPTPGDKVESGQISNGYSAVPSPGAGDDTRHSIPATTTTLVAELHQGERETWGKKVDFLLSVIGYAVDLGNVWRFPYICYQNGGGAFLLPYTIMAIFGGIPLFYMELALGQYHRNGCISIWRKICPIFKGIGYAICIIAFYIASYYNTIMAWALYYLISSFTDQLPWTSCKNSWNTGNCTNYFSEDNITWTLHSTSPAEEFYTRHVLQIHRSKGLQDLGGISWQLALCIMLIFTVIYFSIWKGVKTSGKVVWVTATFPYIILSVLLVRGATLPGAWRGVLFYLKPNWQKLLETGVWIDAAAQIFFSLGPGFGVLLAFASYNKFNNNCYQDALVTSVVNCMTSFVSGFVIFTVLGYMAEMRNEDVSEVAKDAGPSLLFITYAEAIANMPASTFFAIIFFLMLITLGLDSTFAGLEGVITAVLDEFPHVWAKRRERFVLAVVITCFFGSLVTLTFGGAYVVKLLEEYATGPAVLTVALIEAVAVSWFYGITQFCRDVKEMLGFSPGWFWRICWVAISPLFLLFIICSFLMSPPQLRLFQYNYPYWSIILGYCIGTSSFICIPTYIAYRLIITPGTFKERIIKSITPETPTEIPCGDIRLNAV

[33] = biological target: Beta-1 adrenergic receptor (Homo sapiens) (UniProt P08588); assay: Inhibition of human beta 1 adrenergic receptor at 10 uM by CEREP assay
Beta-1 adrenergic receptor (Homo sapiens), sequence (P08588 whole entry, looked up): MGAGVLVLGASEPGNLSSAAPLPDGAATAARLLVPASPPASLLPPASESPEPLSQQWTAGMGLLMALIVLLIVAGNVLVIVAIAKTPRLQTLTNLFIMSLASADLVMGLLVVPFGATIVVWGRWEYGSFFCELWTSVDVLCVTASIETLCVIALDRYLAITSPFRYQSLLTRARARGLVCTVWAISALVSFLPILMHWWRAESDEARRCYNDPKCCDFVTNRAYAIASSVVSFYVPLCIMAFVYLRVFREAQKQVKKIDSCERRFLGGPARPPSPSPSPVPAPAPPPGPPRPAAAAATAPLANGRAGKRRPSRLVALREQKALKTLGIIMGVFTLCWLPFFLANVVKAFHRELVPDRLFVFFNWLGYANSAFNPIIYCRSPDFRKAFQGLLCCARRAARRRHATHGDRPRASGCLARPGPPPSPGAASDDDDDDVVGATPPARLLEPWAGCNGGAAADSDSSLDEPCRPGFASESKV

Homo sapiens [34] = organism: Homo sapiens; assay: Inhibition of human Choline transporter at 10 uM by CEREP assay
[35] = Inhibition of central BZD receptor at 10 uM by CEREP assay
[36] = biological target: Corticotropin-releasing factor receptor 1 (Homo sapiens) (UniProt P34998); assay: Inhibition of human CRF1 receptor at 10 uM by CEREP assay
Corticotropin-releasing factor receptor 1 (Homo sapiens), sequence (P34998 whole entry): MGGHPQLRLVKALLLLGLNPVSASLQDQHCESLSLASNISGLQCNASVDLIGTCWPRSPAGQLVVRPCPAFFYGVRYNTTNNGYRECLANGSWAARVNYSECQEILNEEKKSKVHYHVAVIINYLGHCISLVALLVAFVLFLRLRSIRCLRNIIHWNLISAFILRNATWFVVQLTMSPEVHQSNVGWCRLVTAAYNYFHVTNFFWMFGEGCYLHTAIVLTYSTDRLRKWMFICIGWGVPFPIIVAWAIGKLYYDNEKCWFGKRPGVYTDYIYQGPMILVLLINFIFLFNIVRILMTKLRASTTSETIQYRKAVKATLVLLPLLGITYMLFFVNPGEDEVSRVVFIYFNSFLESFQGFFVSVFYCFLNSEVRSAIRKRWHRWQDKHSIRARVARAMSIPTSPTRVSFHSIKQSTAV

[37] = biological target: D(3) dopamine receptor (Homo sapiens) (UniProt P35462); assay: Inhibition of human D3 receptor at 10 uM by CEREP assay
D(3) dopamine receptor (Homo sapiens), sequence (P35462 whole entry): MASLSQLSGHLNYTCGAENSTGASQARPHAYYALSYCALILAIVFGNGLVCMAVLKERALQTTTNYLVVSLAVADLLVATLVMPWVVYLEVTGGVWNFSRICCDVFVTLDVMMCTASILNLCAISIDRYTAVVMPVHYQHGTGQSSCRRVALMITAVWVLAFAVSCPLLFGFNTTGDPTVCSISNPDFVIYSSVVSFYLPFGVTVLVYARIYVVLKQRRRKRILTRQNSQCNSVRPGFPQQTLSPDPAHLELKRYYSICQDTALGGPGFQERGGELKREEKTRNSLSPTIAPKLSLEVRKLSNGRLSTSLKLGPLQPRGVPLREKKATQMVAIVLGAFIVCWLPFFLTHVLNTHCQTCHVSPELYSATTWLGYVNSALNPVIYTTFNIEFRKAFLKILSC

[38] = biological target: Kappa-type opioid receptor (Homo sapiens) (UniProt P41145); assay: Inhibition of KOP receptor at 10 uM by CEREP assay
[39] = biological target: 4-aminobutyrate aminotransferase, mitochondrial (Homo sapiens) (UniProt P80404); assay: Inhibition of GABA transaminase at 10 uM by CEREP assay
[40] = Inhibition of sigma receptor at 10 uM by CEREP assay
[41] = Inhibition of K-ATP channel at 10 uM by CEREP assay
[42] = biological target: Substance-P receptor (Homo sapiens) (UniProt P25103); assay: Inhibition of human Nk1 receptor at 10 uM by CEREP assay
Substance-P receptor (Homo sapiens), sequence (P25103 whole entry): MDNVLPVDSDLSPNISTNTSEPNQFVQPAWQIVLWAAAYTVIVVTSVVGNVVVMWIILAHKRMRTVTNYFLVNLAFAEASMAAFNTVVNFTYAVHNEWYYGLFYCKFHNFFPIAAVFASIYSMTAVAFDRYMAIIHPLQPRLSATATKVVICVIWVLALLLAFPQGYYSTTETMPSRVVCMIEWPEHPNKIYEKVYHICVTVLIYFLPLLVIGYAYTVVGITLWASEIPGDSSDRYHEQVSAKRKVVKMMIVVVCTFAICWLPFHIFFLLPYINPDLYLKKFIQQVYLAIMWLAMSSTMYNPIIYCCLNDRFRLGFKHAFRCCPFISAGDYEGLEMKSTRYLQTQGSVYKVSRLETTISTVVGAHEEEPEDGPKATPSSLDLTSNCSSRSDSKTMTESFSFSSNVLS

[43] = biological target: Neuronal acetylcholine receptor; alpha4/beta2 (Homo sapiens) (UniProt P17787+P43681); assay: Inhibition of neuronal alpha4beta2 nAChR at 10 uM by CEREP assay; format: protein-complex assay
[44] = Cmax in rat at 10 mg/kg, po; format: ADME, organism-based; parameters: dose 10 mg/kg, route oral; details: in vivo
[45] = biological target: Estrogen receptor (Homo sapiens) (UniProt P03372); assay: Inhibition of human estrogen receptor at 10 uM by CEREP assay
[46] = biological target: Neurotensin receptor type 1 (Homo sapiens) (UniProt P30989); assay: Inhibition of human NT1 receptor at 10 uM by CEREP assay

Structure (SMILES): CCc1cccc(CC)c1Cc1ncc[nH]1
- inhibition [1]: 1%
- inhibition [2]: 1%
- inhibition [3]: 3%
- inhibition [4]: 6%
- inhibition [5]: 8%
- inhibition [6]: 10%
- inhibition [7]: 4%
- inhibition [8]: 2%
- inhibition [9]: 18%
- inhibition [10]: 19%
- inhibition [11]: 1%
- inhibition (Homo sapiens [12]): 78%
- inhibition [13]: 20%
- bioavailability [14]: 21%
- inhibition [15]: 17%
- inhibition [16]: 4%
- inhibition [17]: -6%
- inhibition [18]: 5%
- Ratio Ki (CHL): 100
- inhibition [19]: 32%
- inhibition [20]: 21%
- inhibition [21]: 1%
- inhibition [22]: 4%
- inhibition [23]: -7%
- inhibition [24]: -6%
- inhibition (Homo sapiens [25]): 11%
- inhibition [26]: 24%
- inhibition [27]: -2%
- Cmax [28]: 300 ng/mL
- inhibition [29]: 23%
- inhibition at 10 µM [30]: 0%
- inhibition [31]: 4%
- inhibition [32]: 4%
- inhibition [33]: 5%
- inhibition (Homo sapiens [34]): 23%
- inhibition [35]: 19%
- inhibition [36]: -4%
- inhibition [37]: 10%
- inhibition [38]: 19%
- inhibition [39]: 17%
- inhibition [40]: 14%
- inhibition [41]: 7%
- inhibition [42]: 5%
- inhibition [43]: 7%
- Cmax [44]: 100 ng/mL
- inhibition [45]: -4%
- inhibition [46]: -3%
